According to the kinase profiling compilation of Christmann-Franck et al. (2016):

What was measured:
Test in all cases: KINOMEscan competition binding
Conditions in all cases: compound 1.0 µM
ERBB3 (human) = ERBB3 (human) (UniProt P21860)
[1] = system: EIF2AK4 KD2 (human), Q9P2K8 [S808G]
FLT3 (human) = FLT3 (human) (UniProt P36888)
STK33 (human) = STK33 (human) (UniProt Q9BYT3)
MAP3K10 (human) = MAP3K10 (human) (UniProt Q02779)
CHEK1 (human) = CHEK1 (human) (UniProt O14757)
TGFBR1 (human) = TGFBR1 (human) (UniProt P36897)
ADCK3 (human) = ADCK3 (human) (UniProt Q8NI60)
SRPK2 (human) = SRPK2 (human) (UniProt P78362)
DMPK (human) = DMPK (human) (UniProt Q09013)
SNRK (human) = SNRK (human) (UniProt Q9NRH2)
MAP3K6 (human) = MAP3K6 (human) (UniProt O95382)
PDGFRB (human) = PDGFRB (human) (UniProt P09619)
[2] = system: KIT (human), P10721 [D816V]
[3] = system: FLT3 (human), P36888 [ITD]
RPS6KA1 KD2 (human) = RPS6KA1 KD2 (human) (UniProt Q15418)
FRK (human) = FRK (human) (UniProt P42685)
PIK3CB (human) = PIK3CB (human) (UniProt P42338)
MAPK14 (human) = MAPK14 (human) (UniProt Q16539)
CDC2L2 (human) = CDC2L2 (human) (UniProt Q9UQ88)
[4] = system: MET (human), P08581 [Y1235D]
CDC42BPA (human) = CDC42BPA (human) (UniProt Q5VT25)
[5] = system: LRRK2 (human), Q5S007 [G2019S]
ERBB4 (human) = ERBB4 (human) (UniProt Q15303)
PIP4K2B (human) = PIP4K2B (human) (UniProt P78356)
CDK16 (human) = CDK16 (human) (UniProt Q00536)
DDR2 (human) = DDR2 (human) (UniProt Q16832)
PLK4 (human) = PLK4 (human) (UniProt O00444)
MAST1 (human) = MAST1 (human) (UniProt Q9Y2H9)
EPHA6 (human) = EPHA6 (human) (UniProt Q9UF33)
CAMK1D (human) = CAMK1D (human) (UniProt Q8IU85)
ANKK1 (human) = ANKK1 (human) (UniProt Q8NFD2)
[6] = system: FLT3 (human), P36888 [K663Q]
TBK1 (human) = TBK1 (human) (UniProt Q9UHD2)
NTRK3 (human) = NTRK3 (human) (UniProt Q16288)
NEK2 (human) = NEK2 (human) (UniProt P51955)
[7] = system: PIK3CA (human), P42336 [C420R]
TAOK3 (human) = TAOK3 (human) (UniProt Q9H2K8)
MAP4K3 (human) = MAP4K3 (human) (UniProt Q8IVH8)
ACVR1B (human) = ACVR1B (human) (UniProt P36896)
NTRK2 (human) = NTRK2 (human) (UniProt Q16620)
CDK19 (human) = CDK19 (human) (UniProt Q9BWU1)
FGFR1 (human) = FGFR1 (human) (UniProt P11362)

ADCK3 (human), sequence (Q8NI60 whole entry, looked up): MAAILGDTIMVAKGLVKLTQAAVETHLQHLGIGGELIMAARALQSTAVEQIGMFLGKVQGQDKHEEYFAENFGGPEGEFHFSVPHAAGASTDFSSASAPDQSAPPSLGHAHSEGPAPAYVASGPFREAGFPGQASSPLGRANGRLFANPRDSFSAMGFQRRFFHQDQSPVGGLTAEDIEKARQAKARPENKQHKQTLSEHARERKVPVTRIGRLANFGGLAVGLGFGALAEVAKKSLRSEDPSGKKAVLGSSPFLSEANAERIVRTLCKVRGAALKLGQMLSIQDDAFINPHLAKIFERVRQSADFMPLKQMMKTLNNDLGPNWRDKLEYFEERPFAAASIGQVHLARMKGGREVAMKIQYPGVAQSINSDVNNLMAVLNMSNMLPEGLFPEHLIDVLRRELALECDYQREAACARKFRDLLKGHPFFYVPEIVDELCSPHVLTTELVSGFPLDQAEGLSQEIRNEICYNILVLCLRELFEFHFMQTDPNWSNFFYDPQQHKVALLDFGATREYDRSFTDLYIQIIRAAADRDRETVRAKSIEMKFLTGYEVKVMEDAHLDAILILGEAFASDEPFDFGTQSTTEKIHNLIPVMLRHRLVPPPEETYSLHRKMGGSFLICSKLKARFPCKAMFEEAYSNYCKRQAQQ
KIT (human), P10721 [D816V], sequence (P10721 whole entry D816V, looked up): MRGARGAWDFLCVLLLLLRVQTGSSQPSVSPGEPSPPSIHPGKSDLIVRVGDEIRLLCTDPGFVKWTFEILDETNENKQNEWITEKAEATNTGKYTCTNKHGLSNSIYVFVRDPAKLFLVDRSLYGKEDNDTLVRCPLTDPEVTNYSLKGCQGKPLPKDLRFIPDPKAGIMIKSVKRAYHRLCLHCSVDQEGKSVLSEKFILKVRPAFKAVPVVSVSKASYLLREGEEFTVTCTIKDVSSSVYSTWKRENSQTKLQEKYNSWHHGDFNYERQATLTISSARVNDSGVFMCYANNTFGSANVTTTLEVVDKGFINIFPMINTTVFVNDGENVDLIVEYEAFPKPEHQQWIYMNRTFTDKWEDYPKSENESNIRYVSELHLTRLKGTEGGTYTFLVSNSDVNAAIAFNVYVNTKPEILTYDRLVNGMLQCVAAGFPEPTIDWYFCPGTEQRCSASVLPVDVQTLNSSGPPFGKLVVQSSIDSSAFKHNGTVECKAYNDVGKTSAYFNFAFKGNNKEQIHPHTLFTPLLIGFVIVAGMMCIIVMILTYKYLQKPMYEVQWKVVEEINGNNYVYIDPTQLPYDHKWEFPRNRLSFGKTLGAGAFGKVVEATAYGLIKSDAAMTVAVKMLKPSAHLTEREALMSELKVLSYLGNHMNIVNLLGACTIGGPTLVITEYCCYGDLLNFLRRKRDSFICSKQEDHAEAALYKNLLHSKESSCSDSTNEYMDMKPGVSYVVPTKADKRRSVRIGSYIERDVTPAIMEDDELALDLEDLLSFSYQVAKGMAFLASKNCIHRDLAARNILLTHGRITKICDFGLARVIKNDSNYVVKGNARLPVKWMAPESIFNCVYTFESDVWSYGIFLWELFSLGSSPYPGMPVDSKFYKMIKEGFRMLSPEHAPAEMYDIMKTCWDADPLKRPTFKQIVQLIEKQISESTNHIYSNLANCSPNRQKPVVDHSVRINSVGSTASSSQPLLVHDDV
MAP3K6 (human), sequence (O95382 whole entry, looked up): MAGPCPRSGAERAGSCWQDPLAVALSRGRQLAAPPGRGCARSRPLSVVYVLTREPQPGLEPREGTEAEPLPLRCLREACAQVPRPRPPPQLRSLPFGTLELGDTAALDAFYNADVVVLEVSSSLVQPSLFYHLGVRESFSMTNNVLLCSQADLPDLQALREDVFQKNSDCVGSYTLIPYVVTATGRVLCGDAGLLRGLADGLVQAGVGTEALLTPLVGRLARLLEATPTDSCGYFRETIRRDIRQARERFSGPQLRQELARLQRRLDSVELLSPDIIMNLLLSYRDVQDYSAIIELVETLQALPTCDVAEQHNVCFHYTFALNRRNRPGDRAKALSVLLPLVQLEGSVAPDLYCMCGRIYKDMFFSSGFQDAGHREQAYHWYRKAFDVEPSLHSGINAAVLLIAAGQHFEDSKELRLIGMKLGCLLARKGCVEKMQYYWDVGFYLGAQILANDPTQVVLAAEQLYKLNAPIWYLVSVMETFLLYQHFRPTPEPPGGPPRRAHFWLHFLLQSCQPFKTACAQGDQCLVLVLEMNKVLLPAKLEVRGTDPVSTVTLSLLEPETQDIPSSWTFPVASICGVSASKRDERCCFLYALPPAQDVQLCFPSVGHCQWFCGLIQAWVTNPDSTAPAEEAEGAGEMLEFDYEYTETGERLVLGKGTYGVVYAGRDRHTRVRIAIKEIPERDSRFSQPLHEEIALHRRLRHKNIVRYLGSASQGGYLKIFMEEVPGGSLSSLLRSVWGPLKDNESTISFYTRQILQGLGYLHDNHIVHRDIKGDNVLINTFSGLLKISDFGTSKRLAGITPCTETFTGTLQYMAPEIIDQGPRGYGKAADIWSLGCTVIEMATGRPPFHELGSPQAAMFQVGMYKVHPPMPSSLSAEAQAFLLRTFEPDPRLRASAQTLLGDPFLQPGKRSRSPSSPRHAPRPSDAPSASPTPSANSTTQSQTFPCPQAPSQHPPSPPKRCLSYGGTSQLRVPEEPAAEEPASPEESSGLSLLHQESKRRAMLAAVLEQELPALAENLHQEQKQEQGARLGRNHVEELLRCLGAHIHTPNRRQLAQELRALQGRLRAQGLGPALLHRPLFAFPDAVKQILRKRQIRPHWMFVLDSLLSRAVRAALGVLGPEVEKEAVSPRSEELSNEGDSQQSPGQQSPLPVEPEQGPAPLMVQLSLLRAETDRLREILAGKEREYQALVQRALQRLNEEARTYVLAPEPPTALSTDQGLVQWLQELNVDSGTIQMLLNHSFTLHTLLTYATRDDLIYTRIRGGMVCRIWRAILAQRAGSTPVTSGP
ERBB4 (human), sequence (Q15303 whole entry, looked up): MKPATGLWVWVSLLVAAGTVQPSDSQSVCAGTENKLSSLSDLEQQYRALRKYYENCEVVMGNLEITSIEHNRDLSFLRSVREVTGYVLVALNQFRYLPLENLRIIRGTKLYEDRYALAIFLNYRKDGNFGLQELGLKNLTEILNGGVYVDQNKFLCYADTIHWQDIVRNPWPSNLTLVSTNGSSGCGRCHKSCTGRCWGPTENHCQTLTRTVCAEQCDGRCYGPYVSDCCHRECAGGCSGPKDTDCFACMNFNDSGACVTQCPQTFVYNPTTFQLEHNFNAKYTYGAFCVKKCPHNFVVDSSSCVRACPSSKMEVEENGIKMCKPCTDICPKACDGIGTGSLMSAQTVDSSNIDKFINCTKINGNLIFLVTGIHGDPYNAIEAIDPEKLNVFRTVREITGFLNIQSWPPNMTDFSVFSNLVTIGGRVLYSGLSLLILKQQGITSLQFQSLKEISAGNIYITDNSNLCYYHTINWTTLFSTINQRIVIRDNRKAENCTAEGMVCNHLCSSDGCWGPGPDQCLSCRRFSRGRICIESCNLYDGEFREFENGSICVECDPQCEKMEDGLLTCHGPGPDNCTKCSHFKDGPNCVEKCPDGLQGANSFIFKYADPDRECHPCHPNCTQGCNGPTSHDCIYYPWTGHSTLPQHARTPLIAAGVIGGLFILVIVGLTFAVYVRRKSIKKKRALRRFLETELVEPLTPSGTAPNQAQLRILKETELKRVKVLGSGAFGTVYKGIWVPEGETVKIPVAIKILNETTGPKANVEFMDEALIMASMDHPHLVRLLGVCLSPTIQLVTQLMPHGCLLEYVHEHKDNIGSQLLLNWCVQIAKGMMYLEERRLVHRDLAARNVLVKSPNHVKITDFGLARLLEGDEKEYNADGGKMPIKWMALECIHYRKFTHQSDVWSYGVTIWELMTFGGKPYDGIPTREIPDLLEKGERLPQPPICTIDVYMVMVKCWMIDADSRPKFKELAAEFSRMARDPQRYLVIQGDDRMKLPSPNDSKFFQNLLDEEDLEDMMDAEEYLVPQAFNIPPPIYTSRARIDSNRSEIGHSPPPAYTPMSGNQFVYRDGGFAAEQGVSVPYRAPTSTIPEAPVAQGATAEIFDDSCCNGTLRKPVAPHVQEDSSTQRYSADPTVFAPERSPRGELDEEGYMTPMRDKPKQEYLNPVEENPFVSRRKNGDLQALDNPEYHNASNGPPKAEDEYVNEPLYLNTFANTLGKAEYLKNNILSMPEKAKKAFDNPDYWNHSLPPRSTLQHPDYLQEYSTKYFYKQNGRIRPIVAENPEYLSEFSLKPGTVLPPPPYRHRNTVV
SNRK (human), sequence (Q9NRH2 whole entry, looked up): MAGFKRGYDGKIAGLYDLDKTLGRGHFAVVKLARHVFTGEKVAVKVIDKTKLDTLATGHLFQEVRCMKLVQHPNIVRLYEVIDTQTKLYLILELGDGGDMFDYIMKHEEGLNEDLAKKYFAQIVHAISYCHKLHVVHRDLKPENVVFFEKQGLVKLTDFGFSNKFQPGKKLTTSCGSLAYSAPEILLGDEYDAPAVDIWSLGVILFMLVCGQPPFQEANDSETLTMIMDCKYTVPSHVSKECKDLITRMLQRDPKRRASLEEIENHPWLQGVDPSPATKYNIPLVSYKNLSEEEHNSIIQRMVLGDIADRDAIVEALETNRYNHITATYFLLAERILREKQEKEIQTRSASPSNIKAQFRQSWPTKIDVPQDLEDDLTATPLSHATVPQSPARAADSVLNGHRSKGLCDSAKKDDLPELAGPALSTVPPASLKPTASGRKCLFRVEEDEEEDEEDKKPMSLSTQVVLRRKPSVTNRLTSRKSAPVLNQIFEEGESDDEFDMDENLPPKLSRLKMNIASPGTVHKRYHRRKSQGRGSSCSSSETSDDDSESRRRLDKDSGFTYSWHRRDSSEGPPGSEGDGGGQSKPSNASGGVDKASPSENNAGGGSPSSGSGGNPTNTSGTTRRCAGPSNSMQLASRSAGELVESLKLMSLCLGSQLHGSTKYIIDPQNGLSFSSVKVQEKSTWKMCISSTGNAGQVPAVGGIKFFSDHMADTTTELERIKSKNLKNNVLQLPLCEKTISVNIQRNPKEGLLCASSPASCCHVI

SMILES: CN(C)C/C=C/C(=O)Nc1cccc(C(=O)Nc2ccc(Nc3nccc(-c4cccnc4)n3)cc2)c1
- kinase still bound, per cent of control (ERBB3 (human)): 100%
- kinase still bound, per cent of control [1]: 80%
- kinase still bound, per cent of control (FLT3 (human)): 64%
- kinase still bound, per cent of control (STK33 (human)): 93%
- kinase still bound, per cent of control (MAP3K10 (human)): 65%
- kinase still bound, per cent of control (CHEK1 (human)): 100%
- kinase still bound, per cent of control (TGFBR1 (human)): 86%
- kinase still bound, per cent of control (ADCK3 (human)): 58%
- kinase still bound, per cent of control (SRPK2 (human)): 70%
- kinase still bound, per cent of control (DMPK (human)): 90%
- kinase still bound, per cent of control (SNRK (human)): 90%
- kinase still bound, per cent of control (MAP3K6 (human)): 100%
- kinase still bound, per cent of control (PDGFRB (human)): 6%
- kinase still bound, per cent of control [2]: 16%
- kinase still bound, per cent of control [3]: 16%
- kinase still bound, per cent of control (RPS6KA1 KD2 (human)): 82%
- kinase still bound, per cent of control (FRK (human)): 90%
- kinase still bound, per cent of control (PIK3CB (human)): 94%
- kinase still bound, per cent of control (MAPK14 (human)): 83%
- kinase still bound, per cent of control (CDC2L2 (human)): 74%
- kinase still bound, per cent of control [4]: 100%
- kinase still bound, per cent of control (CDC42BPA (human)): 100%
- kinase still bound, per cent of control [5]: 51%
- kinase still bound, per cent of control (ERBB4 (human)): 100%
- kinase still bound, per cent of control (PIP4K2B (human)): 18%
- kinase still bound, per cent of control (CDK16 (human)): 89%
- kinase still bound, per cent of control (DDR2 (human)): 53%
- kinase still bound, per cent of control (PLK4 (human)): 52%
- kinase still bound, per cent of control (MAST1 (human)): 77%
- kinase still bound, per cent of control (EPHA6 (human)): 95%
- kinase still bound, per cent of control (CAMK1D (human)): 100%
- kinase still bound, per cent of control (ANKK1 (human)): 50%
- kinase still bound, per cent of control [6]: 48%
- kinase still bound, per cent of control (TBK1 (human)): 61%
- kinase still bound, per cent of control (NTRK3 (human)): 97%
- kinase still bound, per cent of control (NEK2 (human)): 86%
- kinase still bound, per cent of control [7]: 100%
- kinase still bound, per cent of control (TAOK3 (human)): 94%
- kinase still bound, per cent of control (MAP4K3 (human)): 38%
- kinase still bound, per cent of control (ACVR1B (human)): 86%
- kinase still bound, per cent of control (NTRK2 (human)): 94%
- kinase still bound, per cent of control (CDK19 (human)): 58%
- kinase still bound, per cent of control (FGFR1 (human)): 90%

SMILES: CN(C)C/C=C/C(=O)Nc1cccc(C(=O)Nc2ccc(Nc3nccc(-c4c(-c5ccccc5)nn5ccccc45)n3)cc2)c1
- kinase still bound, per cent of control (ERBB3 (human)): 43%
- kinase still bound, per cent of control [1]: 76%
- kinase still bound, per cent of control (FLT3 (human)): 1%
- kinase still bound, per cent of control (STK33 (human)): 91%
- kinase still bound, per cent of control (MAP3K10 (human)): 100%
- kinase still bound, per cent of control (CHEK1 (human)): 100%
- kinase still bound, per cent of control (TGFBR1 (human)): 12%
- kinase still bound, per cent of control (ADCK3 (human)): 0%
- kinase still bound, per cent of control (SRPK2 (human)): 85%
- kinase still bound, per cent of control (DMPK (human)): 59%
- kinase still bound, per cent of control (SNRK (human)): 100%
- kinase still bound, per cent of control (MAP3K6 (human)): 100%
- kinase still bound, per cent of control (PDGFRB (human)): 0.2%
- kinase still bound, per cent of control [2]: 33%
- kinase still bound, per cent of control [3]: 11%
- kinase still bound, per cent of control (RPS6KA1 KD2 (human)): 36%
- kinase still bound, per cent of control (FRK (human)): 32%
- kinase still bound, per cent of control (PIK3CB (human)): 100%
- kinase still bound, per cent of control (MAPK14 (human)): 2.1%
- kinase still bound, per cent of control (CDC2L2 (human)): 32%
- kinase still bound, per cent of control [4]: 59%
- kinase still bound, per cent of control (CDC42BPA (human)): 13%
- kinase still bound, per cent of control [5]: 100%
- kinase still bound, per cent of control (ERBB4 (human)): 5.4%
- kinase still bound, per cent of control (PIP4K2B (human)): 100%
- kinase still bound, per cent of control (CDK16 (human)): 100%
- kinase still bound, per cent of control (DDR2 (human)): 9%
- kinase still bound, per cent of control (PLK4 (human)): 92%
- kinase still bound, per cent of control (MAST1 (human)): 99%
- kinase still bound, per cent of control (EPHA6 (human)): 32%
- kinase still bound, per cent of control (CAMK1D (human)): 100%
- kinase still bound, per cent of control (ANKK1 (human)): 73%
- kinase still bound, per cent of control [6]: 12%
- kinase still bound, per cent of control (TBK1 (human)): 100%
- kinase still bound, per cent of control (NTRK3 (human)): 84%
- kinase still bound, per cent of control (NEK2 (human)): 93%
- kinase still bound, per cent of control [7]: 100%
- kinase still bound, per cent of control (TAOK3 (human)): 42%
- kinase still bound, per cent of control (MAP4K3 (human)): 59%
- kinase still bound, per cent of control (ACVR1B (human)): 8.4%
- kinase still bound, per cent of control (NTRK2 (human)): 14%
- kinase still bound, per cent of control (CDK19 (human)): 100%
- kinase still bound, per cent of control (FGFR1 (human)): 80%

SMILES: CN(C)C/C=C/C(=O)Nc1cccc(C(=O)Nc2ccc(Nc3nccc(/C(C#N)=C4\Nc5ccccc5S4)n3)cc2)c1
- kinase still bound, per cent of control (ERBB3 (human)): 74%
- kinase still bound, per cent of control [1]: 55%
- kinase still bound, per cent of control (FLT3 (human)): 23%
- kinase still bound, per cent of control (STK33 (human)): 100%
- kinase still bound, per cent of control (MAP3K10 (human)): 68%
- kinase still bound, per cent of control (CHEK1 (human)): 100%
- kinase still bound, per cent of control (TGFBR1 (human)): 97%
- kinase still bound, per cent of control (ADCK3 (human)): 82%
- kinase still bound, per cent of control (SRPK2 (human)): 100%
- kinase still bound, per cent of control (DMPK (human)): 78%
- kinase still bound, per cent of control (SNRK (human)): 100%
- kinase still bound, per cent of control (MAP3K6 (human)): 100%
- kinase still bound, per cent of control (PDGFRB (human)): 35%
- kinase still bound, per cent of control [2]: 41%
- kinase still bound, per cent of control [3]: 57%
- kinase still bound, per cent of control (RPS6KA1 KD2 (human)): 100%
- kinase still bound, per cent of control (FRK (human)): 100%
- kinase still bound, per cent of control (PIK3CB (human)): 100%
- kinase still bound, per cent of control (MAPK14 (human)): 95%
- kinase still bound, per cent of control (CDC2L2 (human)): 39%
- kinase still bound, per cent of control [4]: 100%
- kinase still bound, per cent of control (CDC42BPA (human)): 98%
- kinase still bound, per cent of control [5]: 100%
- kinase still bound, per cent of control (ERBB4 (human)): 100%
- kinase still bound, per cent of control (PIP4K2B (human)): 81%
- kinase still bound, per cent of control (CDK16 (human)): 100%
- kinase still bound, per cent of control (DDR2 (human)): 100%
- kinase still bound, per cent of control (PLK4 (human)): 97%
- kinase still bound, per cent of control (MAST1 (human)): 100%
- kinase still bound, per cent of control (EPHA6 (human)): 100%
- kinase still bound, per cent of control (CAMK1D (human)): 100%
- kinase still bound, per cent of control (ANKK1 (human)): 100%
- kinase still bound, per cent of control [6]: 37%
- kinase still bound, per cent of control (TBK1 (human)): 100%
- kinase still bound, per cent of control (NTRK3 (human)): 97%
- kinase still bound, per cent of control (NEK2 (human)): 99%
- kinase still bound, per cent of control [7]: 100%
- kinase still bound, per cent of control (TAOK3 (human)): 100%
- kinase still bound, per cent of control (MAP4K3 (human)): 91%
- kinase still bound, per cent of control (ACVR1B (human)): 96%
- kinase still bound, per cent of control (NTRK2 (human)): 100%
- kinase still bound, per cent of control (CDK19 (human)): 93%
- kinase still bound, per cent of control (FGFR1 (human)): 100%
